The values that follow are results of earlier work, collected in patent US20090010992A1 (priority 2007, published 2009).

The conditions of the series: oral cherry-flavored syrup (Versed syrup).

As for `Cc1ncc2n1-c1ccc(Cl)cc1C(c1ccccc1F)=NC2` [midazolam], the “bioavailability (erratic)” value was 30-50%.
